Reference: patent publication US7166739B2, “Esters of monomethyl branched alcohols and process for preparing and using same in cosmetics and personal care products” (Finetex, Inc., priority 2004, dated 2007)

Assays:
[1] = Solubility of esters in various solvents (1 gram of ester in 10 gm. solvent)
[2] = Surface tension of esters (typical properties); format: physicochemical
Method: (§1) An analysis of the esters of the invention, i.e., Benzoate ester (Ref. No. 130-63); Octanoate Ester (Ref. No. 130-67); and Maleate Ester (Ref. No. 134-26), was conducted as to appearance, color, percentage water, acidity, saponification value, surface tension, spreading coefficient, freezing point, refractive index and specific gravity. The results are presented in Table I which identifies typical properties of the esters of the invention.

[3] = Viscosity of esters (typical properties); format: physicochemical; conditions: @ 25° C.
Method: as §1

[4] = Spreading coefficient of esters (typical properties); format: physicochemical; parameters: unit not given here
Method: as §1

Solubility in Dow Corning Fluid 245/345 [1]: + | Solubility in Ethanol [1]: + | Solubility in Finester EH-25 [1]: + | Solubility in Finsolv BOD [1]: + | Solubility in Finsolv EB [1]: + | Solubility in Finsolv EMG-20 [1]: − | Solubility in Finsolv P [1]: + | Solubility in Finsolv PG-22 [1]: + | Solubility in Finsolv PL-62 [1]: + | Solubility in Finsolv PL-355 [1]: + | Solubility in Finsolv SB [1]: + | Solubility in Finsolv TN [1]: + | Solubility in Glycerine [1]: − | Solubility in IPM/IPP (Witconol 2314/2316) [1]: + | Solubility in Mineral Oil [1]: + | Solubility in Propylene Glycol [1]: − | Solubility in Water [1]: − | Surface Tension [2]: 30.5 dynes/cm | Viscosity [3]: 80 cps | Spreading Coefficient [4]: 34.0
Substance: Di(C16–17 alkyl) maleate [Maleate Ester (134-26)]
